The values that follow are results of earlier work, collected in US20140113001A1, “ENHANCED ACTIVITY HYDROGEN PEROXIDE DISINFECTANT” (Virox Technologies Inc., priority 2002, published 2014).

Read-outs that look alike come from different tables or passages of the source.

The data set concerns Staphylococcus aureus.

On to `OO` [hydrogen peroxide], for which the “time required to disinfect surfaces contaminated with staphylococcus aureus” value is 60 min (0.1% w/w aqueous solution) and 0.333 min (25.8% w/w aqueous solution).
